Measured values: publication PMC10033419, “Blocking NS3–NS4B interaction inhibits dengue virus in non-human primates” (Nature, 2023)
Like-named read-outs stand apart in the source and are kept apart here.

Legend:
DENV-2/16681/eGFP [1] = experiment: microbe, parasite or virus in culture; type: cell-based; settings: Dengue virus
rVSV Indiana = experiment: microbe, parasite or virus in culture; type: cell-based, recombinant vesicular stomatitis virus; settings: Vesicular stomatitis virus, A549
INF-B Singapore = experiment: microbe, parasite or virus in culture; type: cell-based; settings: Influenza B virus, MDCK
[2] = Toxicity by high-content imaging; type: cell-based, Aedes albopictus; settings: Aedes albopictus, C6/36 cells
Protocol: (§1) A potential toxic effect on host cells was tested in parallel, while omitting virus infection, using the MTS/PMS method (Promega) for Vero cells, or by high-content imaging for C6/36 cells, as described previously. […] RT–qPCR data were analysed using the QuantStudio 12K Flex software (v.1.2.3) or SDS v.1.2 Applied Biosystems software. Inhibition values for antiviral molecules were plotted using KaleidaGraph plotting software (v.4.03, Synergy Software).

C6/36 cells = experiment: Toxicity by high-content imaging; type: cell-based, Aedes albopictus; settings: C3/36 cells; read-out: CC50, individual values
Protocol: as §1

Plasma protein binding = type: in vitro ADME; settings: mouse, mice
[3] = ATPLite cell viability assay; type: cell-based, human; settings: human, THP-1/DC-SIGN cells
Protocol: (§2) In parallel, the toxicity was measured using an ATPLite cell viability luminescence assay (PerkinElmer). The assays were performed in three different cell types (Vero, Huh-7 and THP-1/DC-SIGN) as described in ref. [3] to exclude cell-specific activity of the compound.

THP-1/DC-SIGN cells = experiment: ATPLite cell viability assay; type: cell-based, human
Protocol: as §2

DENV-2/16681/eGFP [4] = experiment: microbe, parasite or virus in culture; type: cell-based; settings: Dengue virus; remark: listed apart in the source
WNV R94224 = experiment: microbe, parasite or virus in culture; type: cell-based; settings: West Nile virus
TOX-MT4LTRLUC = type: cell-based; settings: human, MT4LTRLUC cells
From the text: Supplement 41586_2023_5790_MOESM14_ESM.xlsx, sheet "Ext. Data Table 1" | column: Mean

INF-A PR8/1934 = experiment: microbe, parasite or virus in culture; type: cell-based; settings: Influenza A virus, PR8, MDCK
DENV-2/16681 = experiment: NHP DENV-2 study, NS1 ELISA in serum; parameters: species or system rhesus macaques (M. mulatta); settings: rhesus monkey, in vivo
DENV-1/45AZ5 = experiment: NHP DENV-1 study, IgM/IgG ELISA; settings: for IgG ELISA Titer / IgM ELISA Titer: Negative = 100
JEV CNS769-Laos 2009 = experiment: microbe, parasite or virus in culture; type: cell-based; settings: Japanese encephalitis virus, Vero C1008

COc1cc(N[C@H](C(=O)c2c[nH]c3ccc(OC(F)(F)F)cc23)c2ccc(Cl)cc2OC)cc(S(C)(=O)=O)c1 [JNJ-1802]
EC90 (DENV-2/16681/eGFP [1]; DENV2, Huh-7, Huh-7, read-out: EC90): 0.53 ± 0.31 nM | EC90 (DENV-2/16681/eGFP [1]; DENV2, Huh-7, read-out: EC90 Mean): 0.533 nM | EC50 (rVSV Indiana): 6900 nM | EC50 (INF-B Singapore): > 2600 nM | EC50 (INF-B Singapore; read-out: EC50, Mean): > 25000 nM | EC90 (INF-B Singapore; read-out: EC90, Mean): > 25000 nM | CC50 ([2]; C3/36 cells, mean, read-out: CC50 Mean): 14400 nM | CC50 ([2]; C3/36 cells, read-out: CC50, individual values): 13700 nM | CC50 ([2]; C6/36, read-out: CC50): 14400 ± 1100 nM | CC50 (C6/36 cells): 15200 nM | fraction unbound (Plasma protein binding): < 0.001 | CC50 [3]: > 500 nM | CC50 (THP-1/DC-SIGN cells; individual data, read-out: CC50, individual data): > 500 nM | CC50 (THP-1/DC-SIGN cells; mean, read-out: CC50 Mean): > 500 nM | EC50 (DENV-2/16681/eGFP [4]; DENV2, THP-1, THP-1/DC-SIGN, read-out: EC50): 0.173 ± 0.043 nM | EC90 (DENV-2/16681/eGFP [4]; DENV2, THP-1, THP-1/DC-SIGN, read-out: EC90): 0.283 ± 0.056 nM | EC50 (DENV-2/16681/eGFP [4]; DENV2, THP-1, read-out: EC50, individual data): 0.2 nM | EC90 (DENV-2/16681/eGFP [4]; DENV2, THP-1, read-out: EC90, individual data): 0.25 nM | EC50 (WNV R94224; Vero C1008): 250 nM | EC50 (WNV R94224; Vero C1008, read-out: mean EC50, range): 250 to 1100 nM | CC50 (TOX-MT4LTRLUC): 8140 nM | CC90 (TOX-MT4LTRLUC): 21200 nM | EC50 (INF-A PR8/1934): > 2600 nM | EC50 (INF-A PR8/1934; read-out: EC50, Mean): > 25000 nM | EC90 (INF-A PR8/1934; read-out: EC90, Mean): > 25000 nM | NS1 protein in serum (DENV-2/16681): positive NS1 signal | IgM and IgG responses (DENV-1/45AZ5; 6 mg per kg per day q.d.): undetectable | IgG ELISA Titer (DENV-1/45AZ5; animal R7, Day 0): 100 | IgM ELISA Titer (DENV-1/45AZ5; animal R7, Day 0): 100 | IgG ELISA Titer (DENV-1/45AZ5; animal R7, Day 5): 100 | IgM ELISA Titer (DENV-1/45AZ5; animal R7, Day 5): 100 | IgG ELISA Titer (DENV-1/45AZ5; animal R7, Day 7): 100 | IgM ELISA Titer (DENV-1/45AZ5; animal R7, Day 7): 100 | IgG ELISA Titer (DENV-1/45AZ5; animal R7, Day 9): 100 | IgM ELISA Titer (DENV-1/45AZ5; animal R7, Day 9): 100 | IgG ELISA Titer (DENV-1/45AZ5; animal R7, Day 11): 100 | IgM ELISA Titer (DENV-1/45AZ5; animal R7, Day 11): 100 | IgG ELISA Titer (DENV-1/45AZ5; animal R7, Day 14): 100 | IgM ELISA Titer (DENV-1/45AZ5; animal R7, Day 14): 100 | IgG ELISA Titer (DENV-1/45AZ5; animal R7, Day 29): 100 | IgM ELISA Titer (DENV-1/45AZ5; animal R7, Day 29): 100 | IgG ELISA Titer (DENV-1/45AZ5; animal R8, Day 0): 100 | IgM ELISA Titer (DENV-1/45AZ5; animal R8, Day 0): 100 | IgG ELISA Titer (DENV-1/45AZ5; animal R8, Day 5): 100 | IgM ELISA Titer (DENV-1/45AZ5; animal R8, Day 5): 100 | IgG ELISA Titer (DENV-1/45AZ5; animal R8, Day 7): 100 | IgM ELISA Titer (DENV-1/45AZ5; animal R8, Day 7): 100 | IgG ELISA Titer (DENV-1/45AZ5; animal R8, Day 9): 100 | IgM ELISA Titer (DENV-1/45AZ5; animal R8, Day 9): 100 | IgG ELISA Titer (DENV-1/45AZ5; animal R8, Day 11): 100 | IgM ELISA Titer (DENV-1/45AZ5; animal R8, Day 11): 100 | IgG ELISA Titer (DENV-1/45AZ5; animal R8, Day 14): 100 | IgM ELISA Titer (DENV-1/45AZ5; animal R8, Day 14): 100 | IgG ELISA Titer (DENV-1/45AZ5; animal R8, Day 29): 100 | IgM ELISA Titer (DENV-1/45AZ5; animal R8, Day 29): 100 | IgG ELISA Titer (DENV-1/45AZ5; animal R9, Day 0): 100 | IgM ELISA Titer (DENV-1/45AZ5; animal R9, Day 0): 100 | IgG ELISA Titer (DENV-1/45AZ5; animal R9, Day 5): 100 | IgM ELISA Titer (DENV-1/45AZ5; animal R9, Day 5): 100 | IgG ELISA Titer (DENV-1/45AZ5; animal R9, Day 7): 100 | IgM ELISA Titer (DENV-1/45AZ5; animal R9, Day 7): 100 | IgG ELISA Titer (DENV-1/45AZ5; animal R9, Day 9): 100 | IgM ELISA Titer (DENV-1/45AZ5; animal R9, Day 9): 100 | IgG ELISA Titer (DENV-1/45AZ5; animal R9, Day 11): 100 | IgM ELISA Titer (DENV-1/45AZ5; animal R9, Day 11): 100 | IgG ELISA Titer (DENV-1/45AZ5; animal R9, Day 14): 100 | IgM ELISA Titer (DENV-1/45AZ5; animal R9, Day 14): 100 | IgG ELISA Titer (DENV-1/45AZ5; animal R9, Day 29): 100 | IgM ELISA Titer (DENV-1/45AZ5; animal R9, Day 29): 100 | IgG ELISA Titer (DENV-1/45AZ5; animal R10, Day 0): 100 | IgM ELISA Titer (DENV-1/45AZ5; animal R10, Day 0): 100 | IgG ELISA Titer (DENV-1/45AZ5; animal R10, Day 5): 100 | IgM ELISA Titer (DENV-1/45AZ5; animal R10, Day 5): 100 | IgG ELISA Titer (DENV-1/45AZ5; animal R10, Day 7): 100 | IgM ELISA Titer (DENV-1/45AZ5; animal R10, Day 7): 100 | IgG ELISA Titer (DENV-1/45AZ5; animal R10, Day 9): 100 | IgM ELISA Titer (DENV-1/45AZ5; animal R10, Day 9): 100 | IgG ELISA Titer (DENV-1/45AZ5; animal R10, Day 11): 100 | IgM ELISA Titer (DENV-1/45AZ5; animal R10, Day 11): 100 | IgG ELISA Titer (DENV-1/45AZ5; animal R10, Day 14): 100 | IgM ELISA Titer (DENV-1/45AZ5; animal R10, Day 14): 100 | IgG ELISA Titer (DENV-1/45AZ5; animal R10, Day 29): 100 | IgM ELISA Titer (DENV-1/45AZ5; animal R10, Day 29): 100 | IgG ELISA Titer (DENV-1/45AZ5; animal R11, Day 0): 100 | IgM ELISA Titer (DENV-1/45AZ5; animal R11, Day 0): 100 | IgG ELISA Titer (DENV-1/45AZ5; animal R11, Day 5): 100 | IgM ELISA Titer (DENV-1/45AZ5; animal R11, Day 5): 100 | IgG ELISA Titer (DENV-1/45AZ5; animal R11, Day 7): 100 | IgM ELISA Titer (DENV-1/45AZ5; animal R11, Day 7): 100 | IgG ELISA Titer (DENV-1/45AZ5; animal R11, Day 9): 100 | IgM ELISA Titer (DENV-1/45AZ5; animal R11, Day 9): 100 | IgG ELISA Titer (DENV-1/45AZ5; animal R11, Day 11): 100 | IgM ELISA Titer (DENV-1/45AZ5; animal R11, Day 11): 100 | IgG ELISA Titer (DENV-1/45AZ5; animal R11, Day 14): 100 | IgM ELISA Titer (DENV-1/45AZ5; animal R11, Day 14): 100 | IgG ELISA Titer (DENV-1/45AZ5; animal R11, Day 29): 100 | IgM ELISA Titer (DENV-1/45AZ5; animal R11, Day 29): 100 | IgG ELISA Titer (DENV-1/45AZ5; animal R12, Day 0): 100 | IgM ELISA Titer (DENV-1/45AZ5; animal R12, Day 0): 100 | IgG ELISA Titer (DENV-1/45AZ5; animal R12, Day 5): 100 | IgM ELISA Titer (DENV-1/45AZ5; animal R12, Day 5): 100 | IgG ELISA Titer (DENV-1/45AZ5; animal R12, Day 7): 100 | IgM ELISA Titer (DENV-1/45AZ5; animal R12, Day 7): 100 | IgG ELISA Titer (DENV-1/45AZ5; animal R12, Day 9): 100 | IgM ELISA Titer (DENV-1/45AZ5; animal R12, Day 9): 100 | IgG ELISA Titer (DENV-1/45AZ5; animal R12, Day 11): 100 | IgM ELISA Titer (DENV-1/45AZ5; animal R12, Day 11): 100 | IgG ELISA Titer (DENV-1/45AZ5; animal R12, Day 14): 100 | IgM ELISA Titer (DENV-1/45AZ5; animal R12, Day 14): 100 | IgG ELISA Titer (DENV-1/45AZ5; animal R12, Day 29): 100 | IgM ELISA Titer (DENV-1/45AZ5; animal R12, Day 29): 100 | EC50 (JEV CNS769-Laos 2009): 590 nM
